Measurements: US20220324835A1 (Nurix Therapeutics, Inc., priority 2018, published 2022)

Experiments:
Cbl-b [1] = target: T1, Cbl-b (Homo sapiens, UniProt Q13191); assay: Cbl-b inhibition assay (Cbl-b activity assay, FRET, Biological Example 1; 100 mM NaCl, 60 nM Src kinase); type: biochemical; settings: upper bound stated in text lists; read-out: IC50 values in the Cbl-b inhibition assay of Biological Example 1
Outline: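 N-terminally biotinylated Avi-tagged Cbl-b was mixed with Src kinase, UbcH5B covalently conjugated to Bodipy-fluorescein ubiquitin, and streptavidin-terbium. Src phosphorylation lets Cbl-b bind UbcH5B-Ub, giving terbium-fluorescein FRET; inhibition is read as loss of FRET signal.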

T-cell [2] = assay: IL-2 secretion from T-cells co-stimulated with anti-CD3 and anti-CD28 antibody (Biological Example 2); type: cell-based, human; settings: Homo sapiens, T-cell, read-out: IL-2 secretion Anti-CD3/Anti-CD28 stimulation; for fold induction at 0.3 µM: 0.3 μM Cbl-b inhibitor; for fold induction at 1 µM: 1 μM Cbl-b inhibitor; for fold induction at 4 µM: 4 μM Cbl-b inhibitor
Outline: (§1)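 T-cells were stimulated with anti-CD3 antibody alone or with anti-CD28 antibody, in the presence or absence of Cbl-b inhibitor. IL-2 secretion or CD25 surface staining was measured, and values expressed as fold over the uninhibited baseline […].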

T-cell [3] = assay: IL-2 secretion from T-cells stimulated with anti-CD3 antibody alone (Biological Example 2); type: cell-based, human; settings: T-cell, read-out: IL-2 secretion Anti-CD3 stimulation; for fold induction at 1 µM: 1 μM Cbl-b inhibitor; for fold induction at 8 µM: 8 μM Cbl-b inhibitor
T-cell [4] = assay: CD25 cell surface staining on T-cells co-stimulated with anti-CD3 and anti-CD28 antibody (Biological Example 2); type: cell-based, human; settings: Homo sapiens, T-cell, read-out: CD25 staining Anti-CD3/Anti-CD28 stimulation; for fold induction at 0.3 µM: 0.3 μM Cbl-b inhibitor; for fold induction at 1 µM: 1 μM Cbl-b inhibitor; for fold induction at 4 µM: 4 μM Cbl-b inhibitor
Outline: as §1

T-cell [5] = assay: CD25 cell surface staining on T-cells stimulated with anti-CD3 antibody alone (Biological Example 2); type: cell-based, human; settings: T-cell, read-out: CD25 staining Anti-CD3 stimulation; for fold induction at 1 µM: 1 μM Cbl-b inhibitor; for fold induction at 8 µM: 8 μM Cbl-b inhibitor
Cbl-b [6] = target: T1, Cbl-b; assay: Cbl-b activity assay (Cbl-b inhibition assay), TR-FRET of Cbl-b interaction with UbcH5B-Ub; type: biochemical; settings: assay buffer with 100 mM NaCl, 60 nM Src kinase; read-out: Cbl-b activity IC50
Outline: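 UbcH5B (C85K) conjugated to N-terminally Bodipy-Fluorescein-labeled ubiquitin served as the fluorescent partner. After compound preincubation, Src kinase (60 nM) with 1 mM ATP and 5 mM MgCl2 (final) was added for 1.5 h, followed by a further 1 h incubation. Some values were obtained with 50 mM NaCl and 30 nM Src.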

[7] = fold change over baseline (anti-CD3/anti-CD28 stimulated T-cells without inhibitor)
[8] = Homo sapiens, fold change over baseline (anti-CD3/anti-CD28 stimulated T-cells without inhibitor)
[9] = fold change over baseline, primary human total T-cells

T1 sequence (Q13191 36-427): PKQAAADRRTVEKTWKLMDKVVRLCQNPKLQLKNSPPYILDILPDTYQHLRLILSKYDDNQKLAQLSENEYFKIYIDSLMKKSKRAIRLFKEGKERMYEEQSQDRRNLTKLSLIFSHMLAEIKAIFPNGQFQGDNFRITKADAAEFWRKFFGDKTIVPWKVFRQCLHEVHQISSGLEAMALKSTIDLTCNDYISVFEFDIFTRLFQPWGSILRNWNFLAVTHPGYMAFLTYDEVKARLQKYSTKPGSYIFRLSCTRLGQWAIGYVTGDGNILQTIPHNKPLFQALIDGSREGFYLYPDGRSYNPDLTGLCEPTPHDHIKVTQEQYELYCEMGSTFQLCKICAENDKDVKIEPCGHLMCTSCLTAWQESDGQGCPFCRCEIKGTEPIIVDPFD

Compound | IC50 (Cbl-b [1]) [nM] | fold induction at 0.3 µM (T-cell [2]; [7]) | fold induction at 1 µM (T-cell [2]; [7]) | fold induction at 1 µM (T-cell [3]; [8]) | fold induction at 0.3 µM (T-cell [4]; [7]) | fold induction at 1 µM (T-cell [4]; [7]) | fold induction at 1 µM (T-cell [5]; [8]) | IC50 (Cbl-b [6]) [nM] | fold induction at 0.3 µM (T-cell [2]; [9]) | fold induction at 1 µM (T-cell [2]; [9]) | fold induction at 4 µM (T-cell [2]; [9]) | fold induction at 1 µM (T-cell [3]; [9]) | fold induction at 8 µM (T-cell [3]; [9]) | fold induction at 0.3 µM (T-cell [4]; [9]) | fold induction at 1 µM (T-cell [4]; [9]) | fold induction at 4 µM (T-cell [4]; [9]) | fold induction at 1 µM (T-cell [5]; [9]) | fold induction at 8 µM (T-cell [5]; [9])
CC(c1cc2c(c(C3CC3)n1)CN(c1cccc(C3(Cc4nncn4C)COC3)c1)C2=O)N1CC2(CC2)C1 (stereo not drawn) [Example 586, 6-(1-(5-Azaspiro[2.3]hexan-5-yl)ethyl)-4-cyclopropyl-2-(3-(3-((4-methyl-4H-1,2,4-triazol-3-yl)methyl)oxetan-3-yl)phenyl)-2,3-dihydro-1H-pyrrolo[3,4-c]pyridin-1-one] | ≤ 100 | 1.01 to 2.5 | 2.51 to 5 | < 0.05 | 1.01 to 1.3 | 1.01 to 1.3 | 0.601 to 0.8 | < 100 |  |  |  |  |  |  |  |  |  | 
C[C@H](Cc1nncn1C)c1cc(NC2CCC2)nc(N2Cc3c(cccc3C(F)(F)F)C2=O)c1 [Compound 351, 2-[6-(cyclobutylamino)-4-[(2R)-1-(4-methyl-4H-1,2,4-triazol-3-yl)propan-2-yl]pyridin-2-yl]-4-(trifluoromethyl)-2,3-dihydro-1H-isoindol-1-one] | ≤ 300 |  |  |  |  |  |  | 100 to 300 | 1.01 to 2.5 | 1.01 to 2.5 | 1.01 to 2.5 | < 0.05 | 0.151 to 0.2 | 1.01 to 1.3 | 1.01 to 1.3 | 1.01 to 1.3 | 0.601 to 0.8 | > 1
Cn1cnnc1CC1(c2cccc(N3Cc4c(cc(N5CCNC6(CC6)C5)cc4C(F)(F)F)C3=O)c2)COC1 [Example 582, 2-(3-(3-((4-Methyl-4H-1,2,4-triazol-3-yl)methyl)oxetan-3-yl)phenyl)-6-(4,7-diazaspiro[2.5]octan-7-yl)-4-(trifluoromethyl)isoindolin-1-one] | ≤ 100 | > 7.5 | > 7.5 | 0.101 to 0.15 | 1.31 to 1.5 | 1.31 to 1.5 | > 1 | < 100 |  |  |  |  |  |  |  |  |  | 
CCN1CCN(Cc2cc3c(c(C(F)(F)F)c2)CN(c2cccc(C4(Cc5nncn5C)COC4)c2)C3=O)CC1 [Example 624, 6-((4-ethylpiperazin-1-yl)methyl)-2-(3-(3-((4-methyl-4H-1,2,4-triazol-3-yl)methyl)oxetan-3-yl)phenyl)-4-(trifluoromethyl)isoindolin-1-one] | ≤ 100 | 5 to 7.5 | > 7.5 | > 0.201 | 1.31 to 1.5 | 1.31 to 1.5 | > 1 | < 100 |  |  |  |  |  |  |  |  |  | 
Cn1cnnc1C(F)(F)[C@](C)(F)c1cccc(NC(=O)c2nc3c(C(F)(F)F)cccc3[nH]2)c1 [Compound 345, (R)-N-(3-(1,1,2-trifluoro-1-(4-methyl-4H-1,2,4-triazol-3-yl)propan-2-yl)phenyl)-4-(trifluoromethyl)-1H-benzo[d]imidazole-2-carboxamide] | ≤ 300 |  |  |  |  |  |  | 100 to 300 | 1.01 to 2.5 | 1.01 to 2.5 | 2.51 to 5 | 0.051 to 0.1 | 0.151 to 0.2 | 1.01 to 1.3 | 1.01 to 1.3 | 1.01 to 1.3 | 0.601 to 0.8 | 0.601 to 0.8
Cn1cnnc1CC1(c2cccc(N3Cc4c(cc(CN5CCC(C(F)F)CC5)cc4C(F)(F)F)C3=O)c2)COC1 [Example 643, 6-((4-(difluoromethyl)piperidin-1-yl)methyl)-2-(3-(3-((4-methyl-4H-1,2,4-triazol-3-yl)methyl)oxetan-3-yl)phenyl)-4-(trifluoromethyl)isoindolin-1-one] | ≤ 100 | 5 to 7.5 | > 7.5 | 0.151 to 0.2 | 1.31 to 1.5 | 1.31 to 1.5 | > 1 | < 100 |  |  |  |  |  |  |  |  |  | 
Cn1cnnc1CC1(c2cccc(N3Cc4c(cc(CN5CCOC6(CCC6)C5)cc4C(F)(F)F)C3=O)c2)COC1 [Example 703, 6-((5-oxa-8-azaspiro[3.5]nonan-8-yl)methyl)-2-(3-(3-((4-methyl-4H-1,2,4-triazol-3-yl)methyl)oxetan-3-yl)phenyl)-4-(trifluoromethyl)isoindolin-1-one] | ≤ 100 | > 7.5 | > 7.5 | > 0.201 | 1.01 to 1.3 | 1.01 to 1.3 | > 1 | < 100 |  |  |  |  |  |  |  |  |  | 
C[C@@H](c1cc2c(c(C(F)(F)F)c1)CN(c1cccc(C3(C(F)(F)c4nncn4C)COC3)c1)C2=O)N1CC[C@H](F)C1 [Example 570, 2-(3-(3-(Difluoro(4-methyl-4H-1,2,4-triazol-3-yl)methyl)oxetan-3-yl)phenyl)-6-((S)-1-((S)-3-fluoropyrrolidin-1-yl)ethyl)-4-(trifluoromethyl)isoindolin-1-one] | ≤ 100 | 2.51 to 5 | > 7.5 | > 0.201 | 1.31 to 1.5 | 1.51 to 1.75 | > 1 | < 100 |  |  |  |  |  |  |  |  |  | 
CCOc1cc(NC(=O)c2cc(C)nc(C3CC3)n2)cc(C2(Cc3nncn3C)COC2)c1 [Example 690, 2-cyclopropyl-N-(3-ethoxy-5-(3-((4-methyl-4H-1,2,4-triazol-3-yl)methyl)oxetan-3-yl)phenyl)-6-methylpyrimidine-4-carboxamide] | ≤ 100 | 2.51 to 5 | 5 to 7.5 | 0.051 to 0.1 | 1.01 to 1.3 | 1.01 to 1.3 | 0.801 to 1 | < 100 |  |  |  |  |  |  |  |  |  | 
Cn1cnnc1CC1(c2cccc(N3Cc4c(cc(CN5CCCc6c5cnn6C)cc4C(F)(F)F)C3=O)c2)COC1 [Example 651] | ≤ 100 | 5 to 7.5 | > 7.5 | > 0.201 | 1.01 to 1.3 | 1.01 to 1.3 | > 1 | < 100 |  |  |  |  |  |  |  |  |  | 
C[C@H](Sc1nncn1C)c1cccc(NC(=O)c2cc(C3(O)COC3)cc(C(F)(F)F)n2)c1 [Compound 84, (S)-4-(3-hydroxyoxetan-3-yl)-N-(3-(1-((4-methyl-4H-1,2,4-triazol-3-yl)thio)ethyl)phenyl)-6-(trifluoromethyl)picolinamide] | ≤ 1000 |  |  |  |  |  |  | 301 to 1000 | < 1 | < 1 | < 1 | < 0.05 | < 0.05 | < 1 | 1.01 to 1.3 | 1.01 to 1.3 | < 0.6 | 0.601 to 0.8
CN1CCN(c2cc3c(c(C(F)(F)F)c2)CN(c2cccc(C4(Cc5nncn5C)COC4)c2)C3=O)CC12CC2 [Example 583, 2-(3-(3-((4-Methyl-4H-1,2,4-triazol-3-yl)methyl)oxetan-3-yl)phenyl)-6-(4-methyl-4,7-diazaspiro[2.5]octan-7-yl)-4-(trifluoromethyl)isoindolin-1-one] | ≤ 100 | 2.51 to 5 | 5 to 7.5 | 0.151 to 0.2 | 1.31 to 1.5 | 1.51 to 1.75 | > 1 | < 100 |  |  |  |  |  |  |  |  |  | 
